Measured values published in paper PMC5119973 (Cancer Medicine, 2016).
Several values for one entry are separate records, joined by “and”; a condition that tells them apart may be missing. Equal entries are not always repeated.

Tests used:
HuLECs = experiment: VEGF‐C‐induced migration of HuLECs (scratch assay); assay type: cell-based, human; conditions: 100 nmol/L, 40 h
Experimental: A sterile pipette tip was then used to scratch the cell layers, and images were taken after continued incubation for 40 h.

BRAF^V600E = BRAF^V600E (Homo sapiens, UniProt P15056, V600E); experiment: Cellular kinase phosphorylation assay, RAT‐1/BRAF^V600E; assay type: cell-based; parameters: host or cells: RAT-1 rat fibroblasts; conditions: RAT‐1/BRAF^V600E cells; without serum; read-out: Mean ± SD IC50
MKNK2 = molecular target: T1, MKNK2 (Homo sapiens, UniProt Q9HBH9); experiment: KINOMEscan active-site competitive binding assay; conditions: slash = two separate measurements
T1 construct: purchased DiscoveRx (KINOMEscan service)

RET^M918T = molecular target: T2, RET^M918T (Homo sapiens, UniProt P07949, M918T); experiment: KINOMEscan active-site competitive binding assay
T2 construct: purchased DiscoveRx (KINOMEscan service)

FRK = molecular target: T3, FRK (Homo sapiens, UniProt P42685); experiment: KINOMEscan active-site competitive binding assay; conditions: slash = two separate measurements
T3 construct: purchased DiscoveRx (KINOMEscan service)

KIT = KIT (Homo sapiens, UniProt P10721); experiment: KINOMEscan active-site competitive binding assay; parameters: purchased DiscoveRx (KINOMEscan service); conditions: slash = two separate measurements
TNNI3K = molecular target: T4, TNNI3K (Homo sapiens, UniProt Q59H18); experiment: KINOMEscan active-site competitive binding assay; conditions: slash = two separate measurements
T4 construct: purchased DiscoveRx
T4 sequence (Q59H18 1-835): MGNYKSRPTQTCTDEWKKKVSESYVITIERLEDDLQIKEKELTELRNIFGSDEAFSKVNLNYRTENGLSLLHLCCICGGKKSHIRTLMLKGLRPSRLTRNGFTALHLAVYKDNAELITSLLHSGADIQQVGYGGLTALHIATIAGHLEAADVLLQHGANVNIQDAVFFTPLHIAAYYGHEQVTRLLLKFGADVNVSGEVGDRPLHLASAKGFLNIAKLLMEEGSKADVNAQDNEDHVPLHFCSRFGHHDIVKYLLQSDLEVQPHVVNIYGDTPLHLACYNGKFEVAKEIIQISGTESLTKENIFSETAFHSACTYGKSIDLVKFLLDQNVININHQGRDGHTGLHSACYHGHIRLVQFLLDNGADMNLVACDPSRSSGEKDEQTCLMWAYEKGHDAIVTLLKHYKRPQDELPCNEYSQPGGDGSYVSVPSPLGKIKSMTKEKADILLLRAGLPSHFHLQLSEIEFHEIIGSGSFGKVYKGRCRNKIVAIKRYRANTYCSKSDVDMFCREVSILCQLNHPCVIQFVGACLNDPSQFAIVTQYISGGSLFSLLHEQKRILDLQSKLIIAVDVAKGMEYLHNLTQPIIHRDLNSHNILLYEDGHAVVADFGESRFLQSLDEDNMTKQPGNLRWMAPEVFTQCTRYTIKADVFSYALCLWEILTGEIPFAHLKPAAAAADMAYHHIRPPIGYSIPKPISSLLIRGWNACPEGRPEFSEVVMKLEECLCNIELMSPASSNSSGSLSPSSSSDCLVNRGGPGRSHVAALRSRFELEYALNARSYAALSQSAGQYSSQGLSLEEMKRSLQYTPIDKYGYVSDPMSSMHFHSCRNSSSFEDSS

[1] = Plasma pharmacokinetics in female NMRI Foxn1 nu/nu mice; conditions: for Calculated maximum free drug concentration: murine plasma
Experimental: Analyte concentrations were measured by high‐performance liquid chromatography using a Hewlett Packard 1100 Series system (Palo Alto, CA), with tandem mass spectrometric detection using an Applied Biosystems API 4000 (Thermo Fisher Scientific, Waltham, MA). The assay was validated according to the applicable guideline on method validation 11. The lower limit of quantitation for the assay was 2.00 μg/L, with a linear range of 2.00–20,000 μg/L using a sample volume of 100 μL.
Pharmacokinetic studies were performed in female NMRI Foxn1 nu/nu mice, supplied by Harlan‐Winkelmann GmbH (Borchen, Germany). […] Pharmacokinetic parameters, namely the AUC(0–24)ss and C max, were calculated from plasma concentrations using a noncompartmental analysis.

KIT^V559D,T670I = molecular target: T5, KIT^V559D,T670I (Homo sapiens, UniProt P10721, T670I/V559D); experiment: KINOMEscan active-site competitive binding assay
T5 construct: purchased DiscoveRx (KINOMEscan service)

MAP4K4 = molecular target: T6, MAP4K4 (Homo sapiens, UniProt O95819); experiment: KINOMEscan active-site competitive binding assay; conditions: slash = two separate measurements
T6 construct: purchased DiscoveRx (KINOMEscan service)

MDA‐MB‐231 = MDA‐MB‐231 breast cancer xenograft in NMRI nu/nu mice; assay type: in vivo, mouse; conditions: for Tumor growth inhibition (%): MDA-MB-231, end of study day 40; for Tumor growth versus vehicle control: MDA‐MB‐231 model, P < 0.05 for all groups
Experimental: Mouse experiments were approved by the relevant regulatory agency of the federal state of Berlin (Landesamt für Gesundheit und Soziales Berlin, approval number G0221/03). Mice were maintained in individually ventilated cages in groups of four mice per cage. They received autoclaved food and bedding (Ssniff, Soest, Germany) and acidified (pH 4.0) tap water ad libitum. The animal facility was equipped with an automatic 12 h light/dark regulation, temperature regulation at 22 ± 2°C, and relative humidity of 50 ± 10%. Female NMRI nu/nu mice (purchased from Charles River, Sulzfeld, Germany) were inoculated with 1 × 10^7 MDA‐MB‐231 or HT‐29 cells, which were allowed to grow subcutaneously to a palpable size of approximately 60–100 mm^3. […] All administrations were performed in the morning, without anesthesia. Tumor volume was determined twice per week using caliper measurements, and the volume was calculated using the formula (D × d^2)/2, with d defined as the minor axis and D as the major axis of the measurement. Tumor growth inhibition was calculated as relative tumor volume in relation to the first treatment day.
Changes in tumor volume were statistically evaluated by two‐way repeated‐measures analysis of variance, followed by Bonferroni correction, using GraphPad Prism 5 (San Diego, CA), and P < 0.05 was regarded as significant. Additionally, body weight of all mice was determined twice weekly, and the health status of the animals, including behavioral changes, was recorded daily.

PDGFRs = experiment: KINOMEscan active-site competitive binding assay; conditions: range among family members
CDK11 = molecular target: T7, CDK11 (Homo sapiens, UniProt Q9BWU1); experiment: KINOMEscan active-site competitive binding assay; conditions: slash = two separate measurements
T7 construct: purchased DiscoveRx (KINOMEscan service)

TIE‐2 = TIE‐2 (Homo sapiens, UniProt Q02763); experiment: Cellular kinase phosphorylation assay, CHO/TIE2; assay type: cell-based; conditions: CHO/TIE2 cells; without serum; brackets = number of experiments; read-out: Mean ± SD IC50
[2] = M‐2‐treated mice, 10 mg/kg/day oral for 5 days
[3] = after M‐2 10 mg/kg/day oral for 5 days, total = sum of molar concentrations of regorafenib, M‐2, M‐5
[4] = after regorafenib 10 mg/kg/day oral for 5 days, total = sum of molar concentrations of regorafenib, M‐2, M‐5
[5] = after the labelled (administered) compound, 10 mg/kg/day oral for 5 days
[6] = analyte in plasma after M‐2 10 mg/kg/day oral for 5 days
[7] = analyte in plasma after M‐2 10 mg/kg/day oral for 5 days, AUC(0–24)ss
[8] = analyte in plasma after regorafenib 10 mg/kg/day oral for 5 days
[9] = analyte in plasma after regorafenib 10 mg/kg/day oral for 5 days, AUC(0–24)ss
[10] = regorafenib‐treated mice, 10 mg/kg/day oral for 5 days
[11] = analyte in plasma after M‐5 10 mg/kg/day oral for 5 days

T7 sequence (Q9BWU1 whole entry): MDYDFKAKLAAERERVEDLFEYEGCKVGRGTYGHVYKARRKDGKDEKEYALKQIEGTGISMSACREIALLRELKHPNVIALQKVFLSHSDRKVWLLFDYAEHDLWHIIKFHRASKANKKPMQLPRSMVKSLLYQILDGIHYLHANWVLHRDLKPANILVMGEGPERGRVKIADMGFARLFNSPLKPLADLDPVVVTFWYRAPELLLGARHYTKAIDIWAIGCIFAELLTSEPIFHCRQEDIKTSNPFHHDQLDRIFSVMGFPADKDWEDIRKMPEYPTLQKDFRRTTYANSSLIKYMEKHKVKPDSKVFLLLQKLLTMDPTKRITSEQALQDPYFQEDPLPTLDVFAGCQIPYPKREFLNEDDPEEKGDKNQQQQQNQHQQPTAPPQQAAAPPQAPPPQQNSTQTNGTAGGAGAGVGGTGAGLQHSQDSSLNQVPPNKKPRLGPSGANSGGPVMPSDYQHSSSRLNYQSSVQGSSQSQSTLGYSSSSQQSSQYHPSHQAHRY
T6 sequence (O95819 whole entry): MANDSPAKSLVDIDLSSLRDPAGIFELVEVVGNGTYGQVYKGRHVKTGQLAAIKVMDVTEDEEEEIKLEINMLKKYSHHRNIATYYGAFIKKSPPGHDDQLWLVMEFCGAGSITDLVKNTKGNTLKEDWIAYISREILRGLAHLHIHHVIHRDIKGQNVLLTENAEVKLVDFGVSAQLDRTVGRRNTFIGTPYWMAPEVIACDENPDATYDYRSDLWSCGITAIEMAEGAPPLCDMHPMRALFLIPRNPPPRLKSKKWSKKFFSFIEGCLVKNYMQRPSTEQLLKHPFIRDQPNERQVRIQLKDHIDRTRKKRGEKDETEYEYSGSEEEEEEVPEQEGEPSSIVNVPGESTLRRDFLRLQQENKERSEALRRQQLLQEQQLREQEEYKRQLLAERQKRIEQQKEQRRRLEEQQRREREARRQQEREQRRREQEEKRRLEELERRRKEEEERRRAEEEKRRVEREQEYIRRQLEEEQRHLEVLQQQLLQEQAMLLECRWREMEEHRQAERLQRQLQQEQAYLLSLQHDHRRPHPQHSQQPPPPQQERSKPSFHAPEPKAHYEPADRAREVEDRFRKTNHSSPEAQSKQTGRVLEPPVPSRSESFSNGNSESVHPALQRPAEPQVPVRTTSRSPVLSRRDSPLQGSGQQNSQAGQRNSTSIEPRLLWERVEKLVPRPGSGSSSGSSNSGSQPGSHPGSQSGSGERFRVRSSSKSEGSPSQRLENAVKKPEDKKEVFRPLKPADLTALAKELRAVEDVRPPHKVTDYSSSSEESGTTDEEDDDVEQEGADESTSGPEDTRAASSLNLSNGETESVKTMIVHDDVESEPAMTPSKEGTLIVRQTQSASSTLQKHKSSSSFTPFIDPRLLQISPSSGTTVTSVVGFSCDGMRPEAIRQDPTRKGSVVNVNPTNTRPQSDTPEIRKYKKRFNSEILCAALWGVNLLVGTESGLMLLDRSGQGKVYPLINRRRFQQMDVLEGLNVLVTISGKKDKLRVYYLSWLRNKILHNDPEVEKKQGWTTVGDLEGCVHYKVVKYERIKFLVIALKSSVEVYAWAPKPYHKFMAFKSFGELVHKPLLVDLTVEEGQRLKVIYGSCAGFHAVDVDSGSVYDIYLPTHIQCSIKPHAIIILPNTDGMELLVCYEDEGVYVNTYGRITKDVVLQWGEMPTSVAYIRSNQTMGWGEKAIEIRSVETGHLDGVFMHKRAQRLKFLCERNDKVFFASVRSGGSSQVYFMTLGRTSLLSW
T3 sequence (P42685 whole entry): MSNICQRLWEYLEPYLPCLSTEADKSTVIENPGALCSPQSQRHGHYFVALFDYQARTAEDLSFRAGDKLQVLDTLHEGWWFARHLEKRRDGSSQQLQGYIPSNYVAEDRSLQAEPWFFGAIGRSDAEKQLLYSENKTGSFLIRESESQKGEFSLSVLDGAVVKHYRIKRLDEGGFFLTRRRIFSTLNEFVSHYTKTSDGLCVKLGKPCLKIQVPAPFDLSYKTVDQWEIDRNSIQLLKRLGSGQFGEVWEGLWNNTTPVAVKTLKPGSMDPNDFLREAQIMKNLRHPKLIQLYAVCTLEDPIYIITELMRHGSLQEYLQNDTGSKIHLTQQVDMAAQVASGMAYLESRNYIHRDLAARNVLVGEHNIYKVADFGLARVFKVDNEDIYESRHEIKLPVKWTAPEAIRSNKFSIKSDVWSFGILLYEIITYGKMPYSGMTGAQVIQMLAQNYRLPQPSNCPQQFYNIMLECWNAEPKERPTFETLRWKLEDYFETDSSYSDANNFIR
T1 sequence (Q9HBH9 whole entry): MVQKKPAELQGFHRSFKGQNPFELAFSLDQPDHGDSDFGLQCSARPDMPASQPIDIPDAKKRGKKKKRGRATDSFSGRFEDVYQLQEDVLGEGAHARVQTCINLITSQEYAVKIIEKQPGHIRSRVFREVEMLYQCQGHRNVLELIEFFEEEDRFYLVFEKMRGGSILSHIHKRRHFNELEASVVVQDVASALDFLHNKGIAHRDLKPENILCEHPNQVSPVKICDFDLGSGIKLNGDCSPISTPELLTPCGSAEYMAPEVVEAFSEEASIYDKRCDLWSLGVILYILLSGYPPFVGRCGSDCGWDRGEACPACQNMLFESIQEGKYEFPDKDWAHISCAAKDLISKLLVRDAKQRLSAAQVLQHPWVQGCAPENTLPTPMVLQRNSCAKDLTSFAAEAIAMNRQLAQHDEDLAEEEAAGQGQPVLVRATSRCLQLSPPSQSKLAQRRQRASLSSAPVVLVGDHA
T5 sequence (P10721 26-976 V559D/T670I): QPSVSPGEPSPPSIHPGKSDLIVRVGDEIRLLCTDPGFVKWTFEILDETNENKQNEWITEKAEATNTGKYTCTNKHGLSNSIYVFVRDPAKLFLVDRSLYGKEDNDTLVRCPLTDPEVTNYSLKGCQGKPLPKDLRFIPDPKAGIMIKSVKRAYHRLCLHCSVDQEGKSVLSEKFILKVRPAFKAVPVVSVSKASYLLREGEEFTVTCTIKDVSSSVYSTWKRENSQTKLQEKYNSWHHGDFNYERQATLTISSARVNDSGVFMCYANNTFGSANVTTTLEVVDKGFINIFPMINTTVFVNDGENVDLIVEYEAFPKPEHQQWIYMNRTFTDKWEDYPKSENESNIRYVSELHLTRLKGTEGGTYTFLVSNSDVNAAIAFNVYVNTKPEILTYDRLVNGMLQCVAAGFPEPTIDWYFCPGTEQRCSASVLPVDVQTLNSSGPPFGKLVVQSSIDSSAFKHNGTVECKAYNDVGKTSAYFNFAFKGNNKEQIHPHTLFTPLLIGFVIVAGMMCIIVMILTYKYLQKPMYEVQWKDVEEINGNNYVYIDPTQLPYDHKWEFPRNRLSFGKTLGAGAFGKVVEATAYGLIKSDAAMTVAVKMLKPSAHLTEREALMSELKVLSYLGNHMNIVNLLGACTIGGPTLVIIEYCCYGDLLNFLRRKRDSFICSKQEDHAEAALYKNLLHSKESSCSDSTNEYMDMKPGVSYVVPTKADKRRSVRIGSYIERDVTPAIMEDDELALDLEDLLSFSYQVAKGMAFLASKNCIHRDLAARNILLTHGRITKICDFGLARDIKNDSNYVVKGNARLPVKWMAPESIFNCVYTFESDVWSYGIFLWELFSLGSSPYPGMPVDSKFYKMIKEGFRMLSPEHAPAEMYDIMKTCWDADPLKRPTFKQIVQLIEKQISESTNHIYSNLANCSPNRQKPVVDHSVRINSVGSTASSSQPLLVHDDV
TIE‐2, sequence (Q02763 23-1124): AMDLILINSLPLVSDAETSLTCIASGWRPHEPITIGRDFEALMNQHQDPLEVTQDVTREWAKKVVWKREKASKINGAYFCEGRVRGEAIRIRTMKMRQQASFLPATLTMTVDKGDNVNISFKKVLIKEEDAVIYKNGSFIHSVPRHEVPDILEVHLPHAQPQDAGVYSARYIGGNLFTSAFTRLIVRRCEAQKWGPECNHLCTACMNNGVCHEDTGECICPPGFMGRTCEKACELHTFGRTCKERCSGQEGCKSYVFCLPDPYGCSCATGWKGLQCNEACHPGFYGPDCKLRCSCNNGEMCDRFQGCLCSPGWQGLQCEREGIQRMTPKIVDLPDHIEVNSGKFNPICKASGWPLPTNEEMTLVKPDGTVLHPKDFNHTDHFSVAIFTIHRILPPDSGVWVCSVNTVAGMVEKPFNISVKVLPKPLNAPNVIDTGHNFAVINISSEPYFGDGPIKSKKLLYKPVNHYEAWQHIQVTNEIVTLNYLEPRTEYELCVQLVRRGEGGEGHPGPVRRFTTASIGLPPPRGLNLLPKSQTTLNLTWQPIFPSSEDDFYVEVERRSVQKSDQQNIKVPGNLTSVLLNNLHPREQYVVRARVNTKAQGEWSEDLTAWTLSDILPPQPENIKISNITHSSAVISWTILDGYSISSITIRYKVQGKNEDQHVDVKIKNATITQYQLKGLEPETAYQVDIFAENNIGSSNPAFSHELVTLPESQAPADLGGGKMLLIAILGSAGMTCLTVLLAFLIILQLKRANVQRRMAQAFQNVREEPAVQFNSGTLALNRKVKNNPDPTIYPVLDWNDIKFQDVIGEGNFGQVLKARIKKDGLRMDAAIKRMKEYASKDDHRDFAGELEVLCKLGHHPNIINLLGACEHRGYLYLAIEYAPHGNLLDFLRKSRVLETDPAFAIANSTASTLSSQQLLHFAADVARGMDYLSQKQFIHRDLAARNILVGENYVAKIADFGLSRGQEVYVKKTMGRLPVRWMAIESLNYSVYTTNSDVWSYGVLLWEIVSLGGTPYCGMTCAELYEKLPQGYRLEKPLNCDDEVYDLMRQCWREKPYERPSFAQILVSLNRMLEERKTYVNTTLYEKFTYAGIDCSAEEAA
KIT, sequence (P10721 26-976): as the sequence (P10721 26-976 V559D/T670I) above, with D534V, I645T counted along it

Row | Structure (SMILES) | Inhibition of VEGF‐C‐induced migration (HuLECs) | IC50 (BRAF^V600E) | Kd (MKNK2) | Kd (RET^M918T) | Kd (FRK) | Kd (KIT) | Kd (TNNI3K) | Share of total exposure (sum of total AUC(0–24)ss) [1, 2] | AUC (% of total) [1, 3] | AUC (% of total) [1, 4] | AUC [1, 6] | C max [1, 6] | Cmax [1, 6] | AUC [1, 7] | AUC [1, 8] | Kd (MAP4K4) | Tumor growth inhibition (%) (MDA‐MB‐231; 3 mg/kg/day oral for 27 days) | Tumor growth inhibition (%) (MDA‐MB‐231; 10 mg/kg/day oral for 27 days) | Tumor growth versus vehicle control (MDA‐MB‐231) | Kd (CDK11) | other results
1 | CNC(=O)c1cc(Oc2ccc(NC(=O)Nc3ccc(Cl)c(C(F)(F)F)c3)c(F)c2)cc[n+]1[O-] [M‐2] | inhibited | 21 nM | 20 nM | 7.4 nM | 42 nM | 9.8 nM | 160 nM | 78% | 78% | 16% | 104.4 µmol·h/L | 6150 ng/mL | 12300 nM | 52,101 μg × h/L | 15.0 µmol·h/L | 42 nM | 49% | 70% | significantly inhibited tumor growth | 33 nM | Overall total C max for all three compounds [1, 5]: about 7500 μg/L; Sum of the total AUC(0–24)ss of regorafenib, M‐2 and M‐5 [1, 5]: 67,093 μg × h/L; C max [1, 8]: 753 ng/mL; Cmax [1, 8]: 1500 nM; AUC [1, 9]: 7490 µg·h/L; Calculated maximum free drug concentration [1]: 13.4 nmol/L; Share of total exposure (sum of total AUC(0–24)ss) [1, 10]: 16%; Kd (KIT^V559D,T670I): 12 nM; Kd (PDGFRs): 7.3 to 11 nM; IC50 (TIE‐2): 66 ± 35 nM
2 | NC(=O)c1cc(Oc2ccc(NC(=O)Nc3ccc(Cl)c(C(F)(F)F)c3)c(F)c2)cc[n+]1[O-] [M‐5] | inhibited | 27 nM | 11 nM | 5.8 nM | 24 nM | 5.8 nM | 77 nM | 5% | 5% | 2% | 7.0 µmol·h/L | 342 ng/mL | 700 nM | 3391 µg·h/L | 1.6 µmol·h/L | 89 nM | 60% | 59% | significantly inhibited tumor growth | 86 nM | AUC (% of total) ([1]; after M‐5 10 mg/kg/day oral for 5 days, only M‐5 determined): 100%; AUC [1, 11]: 108.9 µmol·h/L; Cmax [1, 11]: 10900 nM; AUC ([1]; analyte in plasma after M‐5 10 mg/kg/day oral for 5 days, AUC(0–24)ss): 52,796 μg × h/L; C max [1, 8]: 63 ng/mL; Cmax [1, 8]: 100 nM; AUC [1, 9]: 772 µg·h/L; Calculated maximum free drug concentration [1]: 0.5 nmol/L; Share of total exposure (sum of total AUC(0–24)ss) [1, 10]: 2%; Kd (KIT^V559D,T670I): 11 nM; Kd (PDGFRs): 11 nM; IC50 (TIE‐2): 180 nM
3 | CNC(=O)c1cc(Oc2ccc(NC(=O)Nc3ccc(Cl)c(C(F)(F)F)c3)c(F)c2)ccn1 [Regorafenib, reference compound] |  |  | 90 nM and 64 nM |  | 69 nM and 42 nM |  | 170 nM and 110 nM |  |  |  |  |  |  |  |  | 450 nM and 400 nM | 44% | 72% | significantly inhibited tumor growth | 67 nM and 43 nM | 
